Laboratory results from patent US3960860A, “2-Methyl-5,7-dihydrothieno-[3,4d]-pyrimidine” (priority 1975, dated 1976).

Assays:
[1] = character of vanilla flavor; settings: 0.2 parts of 0.1% in propylene glycol; compared with the material omitted
Experimental: A vanilla flavor is prepared by admixing the following ingredients: […]

[2] = organoleptic evaluation (odor and flavor) of the pyrimidine
[3] = taste of aqueous solutions; settings: by itself at levels of 10 parts in 10^10, aqueous solutions
Description: (§1) It can thus be used as an enhancer to reduce the quantity of artificial sweeteners required or to permit diminution of the quantity of natural sweeteners such as sugar.

[4] = enhancement of the sweetness of foods; settings: in foods; levels as low as
Description: as §1

[5] = acute oral toxicity (LD50, no-effect dose); settings: in vivo
[6] = fragrance of perfume composition; settings: thienopyrimidine replaces 20 parts of caraway essence
[7] = comparison of toxicity and potency with the chloroanalog; settings: versus other analogs, such as its chloroanalog
[8] = 0.1% alcohol solution on a blotter strip

Cc1ncc2c(n1)CSC2 [2-methyl-5,7-dihydrothieno-[3,4d]-pyrimidine]
quality of vanilla flavor [1]: distinctly "natural" quality
odor/flavor character in aqueous solution ([2]; 0.001 ppm in aqueous solution): sweet roasted nut, popcorn character with a light astringency
flavor in water ([2]; 0.003 ppm in water): popcorn, roasted peanut flavor with an astringency like peanut skins
odor [2, 8]: sharp, fresh roasted, sweet nut with a popcorn character
persistence of odor [2, 8]: the odor seems to disappear because of anosmia
flavor effect in chicken broth ([2]; 10^^-6 ppm in chicken broth): accentuates the root vegetable flavor notes
odor of the crystalline material ([2]; colorless crystalline material): powerful odor of roasted fresh, sweet nut with a definite popcorn character
aftertaste imparted to aqueous solutions [3]: sweet, pleasant, and non-bitter aftertaste
level at which the material begins to enhance the sweetness of foods [4]: 10 parts in 10^12
NOAEL ([5]; po, test animals, read-out: maximum no effective dose or the lowest dosage level at which essentially no signs of toxicity in test animals is observed): 34 mg/kg
LD50 ([5]; acute, oral): 260 ± 40 mg/kg
caraway note after replacement of caraway essence [6]: the natural caraway note of the original perfume is retained
potency relative to other analogs [7]: less potent
toxicity relative to other analogs [7]: less toxic
